Values of other authors as cited in article PMC2787808 (Peptides, 2009).

Assays:
[1] = system: G17-Gly binding sites on DLD-1 cells; details: previous study; ref [11]
HT-29 cells = details: ref [2]

In the case of “pGlu-Gly-Pro-Trp-Leu-(Glu)5-Ala-Tyr [G17(1–12)]”, the “Binding sites and affinity on DLD-1 cells” value [1] is given as “binds to two sites” and the “Stimulation of proliferation of HT-29 cells” value (HT-29 cells) is given as “stimulates nonbiphasic proliferation”.
